In this test the target is GCN2 (Homo sapiens, UniProt Q9P2K8). Nature of the test: TR-FRET biochemical assay for inhibition of GCN2 (Example 106, for Example 1-4BB). The conditions noted are these: Table 9.
GCN2, sequence (Q9P2K8 whole entry): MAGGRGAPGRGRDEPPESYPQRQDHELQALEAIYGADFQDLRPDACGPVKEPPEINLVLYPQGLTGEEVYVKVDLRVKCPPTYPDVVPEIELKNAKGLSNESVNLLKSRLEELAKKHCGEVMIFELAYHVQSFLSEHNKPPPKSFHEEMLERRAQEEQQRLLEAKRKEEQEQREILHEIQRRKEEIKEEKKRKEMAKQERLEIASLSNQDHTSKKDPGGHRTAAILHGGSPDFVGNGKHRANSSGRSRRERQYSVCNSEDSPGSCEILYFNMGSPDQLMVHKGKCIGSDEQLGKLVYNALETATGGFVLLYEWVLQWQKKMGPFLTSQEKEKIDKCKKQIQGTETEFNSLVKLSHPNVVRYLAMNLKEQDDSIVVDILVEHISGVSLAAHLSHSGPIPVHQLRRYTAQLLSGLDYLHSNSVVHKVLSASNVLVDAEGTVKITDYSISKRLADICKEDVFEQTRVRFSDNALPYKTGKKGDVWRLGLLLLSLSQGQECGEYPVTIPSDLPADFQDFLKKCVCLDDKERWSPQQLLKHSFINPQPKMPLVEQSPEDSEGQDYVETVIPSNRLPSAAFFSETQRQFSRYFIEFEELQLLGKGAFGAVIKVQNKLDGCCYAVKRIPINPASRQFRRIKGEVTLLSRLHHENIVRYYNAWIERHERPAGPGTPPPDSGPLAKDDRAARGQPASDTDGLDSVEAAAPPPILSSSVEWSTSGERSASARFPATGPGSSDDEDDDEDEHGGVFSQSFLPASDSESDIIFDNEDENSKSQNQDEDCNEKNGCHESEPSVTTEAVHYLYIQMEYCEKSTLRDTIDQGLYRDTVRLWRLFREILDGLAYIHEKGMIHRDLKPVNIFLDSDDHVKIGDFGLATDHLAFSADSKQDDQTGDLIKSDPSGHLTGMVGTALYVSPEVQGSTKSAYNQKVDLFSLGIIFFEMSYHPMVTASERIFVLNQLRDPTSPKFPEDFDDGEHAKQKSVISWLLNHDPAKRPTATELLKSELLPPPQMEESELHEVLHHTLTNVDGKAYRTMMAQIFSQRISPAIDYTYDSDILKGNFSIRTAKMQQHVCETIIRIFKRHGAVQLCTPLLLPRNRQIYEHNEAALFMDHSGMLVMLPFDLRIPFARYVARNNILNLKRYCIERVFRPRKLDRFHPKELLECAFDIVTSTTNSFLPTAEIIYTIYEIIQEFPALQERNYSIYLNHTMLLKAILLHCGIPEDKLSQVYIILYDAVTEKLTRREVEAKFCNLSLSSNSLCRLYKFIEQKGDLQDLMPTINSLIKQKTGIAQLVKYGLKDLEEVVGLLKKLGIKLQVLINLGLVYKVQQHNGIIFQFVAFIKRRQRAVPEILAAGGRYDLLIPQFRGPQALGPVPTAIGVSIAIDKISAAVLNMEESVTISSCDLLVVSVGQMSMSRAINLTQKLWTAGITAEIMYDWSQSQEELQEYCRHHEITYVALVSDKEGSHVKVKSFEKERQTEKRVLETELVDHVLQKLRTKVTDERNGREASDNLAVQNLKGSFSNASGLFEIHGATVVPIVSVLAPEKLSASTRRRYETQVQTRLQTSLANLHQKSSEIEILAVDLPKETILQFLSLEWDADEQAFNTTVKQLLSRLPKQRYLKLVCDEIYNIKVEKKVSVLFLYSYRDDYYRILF
The IC50 is the point on the concentration scale where inhibition reaches its midpoint. Lower therefore signals greater potency. For the compound `Cc1ncc(F)cc1S(=O)(=O)Nc1ccc(F)c(-c2ccc3c(C(=O)NCCCN(C)C)n[nH]c3c2F)c1F` [Example 3CI, 6-(2,6-difluoro-3-((5-fluoro-2-methylpyridine)-3-sulfonamido)phenyl)-N-(3-(dimethylamino)propyl)-7-fluoro-1H-indazole-3-carboxamide], the IC50 lay within 500 to 2500 nM.
For `Cc1ncc(S(=O)(=O)Nc2cc(F)cc(-c3ccc4c(-c5ncc[nH]5)n[nH]c4c3F)c2F)s1` [Example 3CJ, N-(2,5-difluoro-3-(7-fluoro-3-(1H-imidazol-2-yl)-1H-indazol-6-yl)phenyl)-2-methylthiazole-5-sulfonamide] the value was 500 to 2500 nM; for `COc1ncc(F)cc1S(=O)(=O)Nc1ccc(F)c(-c2ccc3c(-c4nnc(C)[nH]4)n[nH]c3c2F)c1F` [Example 3CK, N-(2,4-difluoro-3-(7-fluoro-3-(5-methyl-4H-1,2,4-triazol-3-yl)-1H-indazol-6-yl)phenyl)-5-fluoro-2-methoxypyridine-3-sulfonamide], less than 500 nM.
Then `COc1ncncc1S(=O)(=O)Nc1ccc(F)c(-c2ccc3c(C(=O)NCCCO)n[nH]c3c2F)c1F` [Example 3CL, 6-(2,6-difluoro-3-((4-methoxypyrimidine)-5-sulfonamido)phenyl)-7-fluoro-N-(3-hydroxypropyl)-1H-indazole-3-carboxamide], with greater than 10000 nM.
For `COc1ncncc1S(=O)(=O)Nc1ccc(F)c(-c2ccc3c(C(=O)NCCCN(C)C)n[nH]c3c2F)c1F` [Example 3CM, 6-(2,6-difluoro-3-((4-methoxypyrimidine)-5-sulfonamido)phenyl)-N-(3-(dimethylamino)propyl)-7-fluoro-1H-indazole-3-carboxamide] the value was greater than 10000 nM; for `COc1ncc(CO)cc1S(=O)(=O)Nc1ccc(F)c(-c2ccc3c(C(=O)NCCCO)n[nH]c3c2F)c1F` [Example 3CN, 6-(2,6-difluoro-3-((5-(hydroxylmethyl)-2-methoxy-pyridine)-3-sulfonamido)-phenyl)-7-fluoro-N-(3-hydroxypropyl)-1H-indazole-3-carboxamide], 2500 to 10000 nM; for `Cc1ccc(S(=O)(=O)Nc2ccc(F)c(-c3ccc4c(C(=O)NCCCN(C)C)n[nH]c4c3F)c2F)c(C)n1` [Example 3CO, N-(3-(dimethylamino)propyl)-6-(3-((2,6-dimethylpyridine)-3-sulfonamido)-2,6-difluorophenyl)-7-fluoro-1H-indazole-3-carboxamide], 500 to 2500 nM.
In turn, `Cc1ccc(S(=O)(=O)Nc2ccc(F)c(-c3ccc4c(C(=O)NCCCO)n[nH]c4c3F)c2F)c(C)n1` [Example 3CP, 6-(3-((2,6-dimethylpyridine)-3-sulfonamido)-2,6-difluorophenyl)-7-fluoro-N-(3-hydroxypropyl)-1H-indazole-3-carboxamide] gave an IC50 of 500 to 2500 nM.
`COc1ncc(Cl)cc1S(=O)(=O)Nc1ccc(F)c(-c2ccc3c(C(=O)Nc4cn[nH]c4)n[nH]c3c2F)c1F` [Example 3CQ, 6-(3-((5-chloro-2-methoxy-pyridine)-3-sulfonamido)-2,6-difluorophenyl)-7-fluoro-N-(1H-pyrazol-4-yl)-1H-indazole-3-carboxamide] registered a concentration for half-maximal inhibition (IC50) of less than 500 nM.
Compound `COc1ncc(Cl)cc1S(=O)(=O)Nc1ccc(F)c(-c2ccc3c(C(=O)Nc4cnn(C(F)F)c4)n[nH]c3c2F)c1F` [Example 3CR, 6-(3-((5-chloro-2-methoxy-pyridine)-3-sulfonamido)-2,6-difluorophenyl)-N-(1-(difluoromethyl)-1H pyrazol-4-yl)-7-fluoro-1H-indazole-3-carboxamide] had an IC50 of 500 to 2500 nM.
Then `COc1ncc(Cl)cc1S(=O)(=O)Nc1ccc(F)c(-c2ccc3c(C(=O)Nc4c[nH]nc4C)n[nH]c3c2F)c1F` [Example 3CS, 6-(3-((5-chloro-2-methoxy-pyridine)-3-sulfonamido)-2,6-difluorophenyl)-7-fluoro-N-(3-methyl-1H-pyrazol-4-yl)-1H-indazole-3-carboxamide], with less than 500 nM.
For `COc1ncc(Cl)cc1S(=O)(=O)Nc1ccc(F)c(-c2ccc3c(C(=O)Nc4cnn(CCO)c4)n[nH]c3c2F)c1F` [Example 3CT, 6-(3-((5-chloro-2-methoxy-pyridine)-3-sulfonamido)-2,6-difluorophenyl)-7-fluoro-N-(1-(2-hydroxyethyl)-1H-pyrazol-4-yl)-1H-indazole-3-carboxamide], the IC50 is less than 500 nM.
For `COc1ncc(Cl)cc1S(=O)(=O)Nc1ccc(F)c(-c2ccc3c(C(=O)Nc4nn[nH]n4)n[nH]c3c2F)c1F` [Example 3CU, 6-(3-((5-chloro-2-methoxy-pyridine)-3-sulfonamido)-2,6-difluorophenyl)-7-fluoro-N-(2H-tetrazol-5-yl)-1H-indazole-3-carboxamide] the value was less than 500 nM; for `COc1ncc(Cl)cc1S(=O)(=O)Nc1ccc(F)c(-c2ccc3c(C(=O)Nc4cnoc4)n[nH]c3c2F)c1F` [Example 3CV, 6-(3-((5-chloro-2-methoxy-pyridine)-3-sulfonamido)-2,6-difluorophenyl)-7-fluoro-N-(isoxazol-4-yl)-1H-indazole-3-carboxamide], less than 500 nM; for `COc1ncc(F)cc1S(=O)(=O)Nc1ccc(F)c(-c2ccc3c(-c4n[nH]c(=O)[nH]4)n[nH]c3c2F)c1F` [Example 3CW, N-(2,4-difluoro-3-(7-fluoro-3-(5-oxo-4,5-dihydro-1H-1,2,4-triazol-3-yl)-1H-indazol-6-yl)phenyl)-5-fluoro-2-methoxypyridine-3-sulfonamide], less than 500 nM.
Consider `COc1ncncc1S(=O)(=O)Nc1ccc(F)c(-c2ccc3c(-c4ncc[nH]4)n[nH]c3c2F)c1F` [Example 3CX, N-(2,4-difluoro-3-(7-fluoro-3-(1H-imidazol-2-yl)-1H-indazol-6-yl)phenyl)-4-methoxypyrimidine-5-sulfonamide], for which the half-maximal inhibitory concentration (IC50) was 500 to 2500 nM.
Regarding `COc1ncc(C#N)cc1S(=O)(=O)Nc1ccc(F)c(-c2ccc3c(C(N)=O)n[nH]c3c2F)c1F` [Example 3CY, 6-(3-((5-cyano-2-methoxy-pyridine)-3-sulfonamido)-2,6-difluorophenyl)-7-fluoro-1H-indazole-3-carboxamide], the IC50 was in the range of 500 to 2500 nM.
For the compound `COc1ncc(Cl)cc1S(=O)(=O)Nc1ccc(F)c(-c2ccc3c(C(=O)Nc4nnn(C)n4)n[nH]c3c2F)c1F` [Example 3CZ, 6-(3-((5-chloro-2-methoxy-pyridine)-3-sulfonamido)-2,6-difluorophenyl)-7-fluoro-N-(2-methyl-2H-tetrazol-5-yl)-1H-indazole-3-carboxamide], the IC50 fell in the range of 500 to 2500 nM.
Then `COc1ncc(Cl)cc1S(=O)(=O)Nc1ccc(F)c(-c2ccc3c(C(=O)NC[C@H]4CCCN4C)n[nH]c3c2F)c1F` [Example 3D, 6-(3-((5-chloro-2-methoxy-pyridine)-3-sulfonamido)-2,6-difluorophenyl)-7-fluoro-N-(((R)-1-methylpyrrolidin-2-yl)methyl)-1H-indazole-3-carboxamide], with less than 500 nM; and `COc1ncc(Cl)cc1S(=O)(=O)Nc1ccc(F)c(-c2ccc3c(C(=O)Nc4cc(F)cc(Cl)c4)n[nH]c3c2F)c1F` [Example 3DA, 6-(3-((5-chloro-2-methoxy-pyridine)-3-sulfonamido)-2,6-difluorophenyl)-N-(3-chloro-5-fluorophenyl)-7-fluoro-1H-indazole-3-carboxamide], with 2500 to 10000 nM; and `COc1ncc(CO)cc1S(=O)(=O)Nc1ccc(F)c(-c2ccc3c(C(=O)NCCCN(C)C)n[nH]c3c2F)c1F` [Example 3DB, 6-(2,6-difluoro-3-((5-(hydroxymethyl)-2-meth-oxypyridine)-3-sulfonamido)-phenyl)-N-(3-(dimethyl-amino)propyl)-7-fluoro-1H-indazole-3-carboxamide], with greater than 10000 nM.
Compound `COc1ncc(CO)cc1S(=O)(=O)Nc1ccc(F)c(-c2ccc3c(-c4ncc[nH]4)n[nH]c3c2F)c1F` [Example 3DC, N-(2,4-difluoro-3-(7-fluoro-3-(1H-imidazol-2-yl)-1H-indazol-6-yl)phenyl)-5-(hydroxylmethyl)-2-methoxypyridine-3-sulfonamide] came in with a concentration for half-maximal inhibition (IC50) of 500 to 2500 nM.
`COc1nc(C)c(Cl)cc1S(=O)(=O)Nc1ccc(F)c(-c2ccc3c(-c4ncc[nH]4)n[nH]c3c2F)c1F` [Example 3DD, 5-chloro-N-(2,4-difluoro-3-(7-fluoro-3-(1H-imidazol-2-yl)-1H-indazol-6-yl)phenyl)-2-methoxy-6-methylpyridine-3-sulfonamide] showed a half-maximal inhibitory concentration (IC50) of less than 500 nM.
For `COc1ncc(CO)cc1S(=O)(=O)Nc1ccc(F)c(-c2ccc3c(C(N)=O)n[nH]c3c2F)c1F` [Example 3DE, 6-(2,6-difluoro-3-((5-(hydroxylmethyl)-2-methoxy-pyridine)-3-sulfonamido)-phenyl)-7-fluoro-1H-indazole-3-carboxamide] the value was 2500 to 10000 nM; for `COc1ncc(Cl)cc1S(=O)(=O)Nc1ccc(F)c(-c2ccc3c(C(=O)Nc4cn[nH]n4)n[nH]c3c2F)c1F` [Example 3DF, 6-(3-((5-chloro-2-methoxy-pyridine)-3-sulfonamido)-2,6-difluorophenyl)-7-fluoro-1H-(2H-1,2,3-triazol-4-yl)-1H-indazole-3-carboxamide], 500 to 2500 nM.
Then `Cc1ccc(S(=O)(=O)Nc2ccc(F)c(-c3ccc4c(C(=O)Nc5cnoc5)n[nH]c4c3F)c2F)c(C)n1` [Example 3DG, 6-(3-((2,6-dimethylpyridine)-3-sulfonamido)-2,6-difluoro-phenyl)-7-fluoro-N-(isoxazol-4-yl)-1H-indazole-3-carboxamide], with less than 500 nM; and `Cc1ccc(S(=O)(=O)Nc2ccc(F)c(-c3ccc4c(C(=O)Nc5cnn(C)c5)n[nH]c4c3F)c2F)c(C)n1` [Example 3DH, 6-(3-((2,6-dimethylpyridine)-3-sulfonamido)-2,6-difluoro-phenyl)-7-fluoro-N-(1-methyl-1H-pyrazol-4-yl)-1H-indazole-3-carboxamide], with less than 500 nM; and `Cc1ccc(S(=O)(=O)Nc2ccc(F)c(-c3ccc4c(C(=O)Nc5cn[nH]c5)n[nH]c4c3F)c2F)c(C)n1` [Example 3DI, 6-(3-((2,6-dimethylpyridine)-3-sulfonamido)-2,6-difluoro-phenyl)-7-fluoro-N-(1H-pyrazol-4-yl)-1H-indazole-3-carboxamide], with less than 500 nM.

The record behind these values is patent publication US20220388964A1 (HiberCell, Inc., priority 2019, published 2022).
